Test results reported in the CheMixHub ionic liquid set.

Assay: xn = mol fraction of the nth substance listed
Details: for electrical conductivity: frequency 0.01 MHz

CC1CCC(=O)O1 (stereo unspecified) + CCCC[n+]1ccn(C)c1.O=S(=O)([N-]S(=O)(=O)C(F)(F)F)C(F)(F)F
electrical conductivity [S/m], 100 kPa
Details | 293.15 K | 298.15 K | 303.15 K | 308.15 K | 313.15 K | 318.15 K | 323.15 K
x2 = 0.0505 | 0.666 | 0.719 | 0.785 | 0.849 | 0.914 | 0.986 | 1.05
x2 = 0.1001 | 1.01 | 1.11 | 1.21 | 1.31 | 1.42 | 1.54 | 1.67
x2 = 0.1492 | 1.11 | 1.21 | 1.32 | 1.45 | 1.58 | 1.73 | 1.87
x2 = 0.1998 | 1.1 | 1.21 | 1.34 | 1.48 | 1.62 | 1.77 | 1.92
x2 = 0.3008 | 0.993 | 1.1 | 1.22 | 1.36 | 1.5 | 1.64 | 1.79
x2 = 0.4031 | 0.816 | 0.913 | 1.02 | 1.13 | 1.25 | 1.38 | 1.51
x2 = 0.5048 | 0.677 | 0.762 | 0.854 | 0.96 | 1.07 | 1.19 | 1.31
x2 = 0.6031 | 0.561 | 0.636 | 0.72 | 0.818 | 0.918 | 1.03 | 1.16
x2 = 0.6973 | 0.476 | 0.544 | 0.623 | 0.712 | 0.81 | 0.918 | 1.03
x2 = 0.7994 | 0.394 | 0.457 | 0.531 | 0.612 | 0.703 | 0.807 | 0.919
x2 = 0.8711 | 0.364 | 0.425 | 0.498 | 0.575 | 0.663 | 0.763 | 0.869

N + CCCC[n+]1ccn(C)c1.O=S(=O)([N-]S(=O)(=O)C(F)(F)F)C(F)(F)F
313.2 K, 101 kPa
Details | viscosity [mPa·s]
x2 = 0.7997 | 20.1
x2 = 0.8338 | 21.7
x2 = 0.8696 | 22
x2 = 0.9099 | 23.1
x2 = 0.9541 | 25.1

c1ccsc1 + CCCC[n+]1ccn(C)c1.O=S(=O)([N-]S(=O)(=O)C(F)(F)F)C(F)(F)F
viscosity [mPa·s], 100 kPa
Details | x1 = 0.089 | x1 = 0.276 | x1 = 0.561 | x1 = 1
298.15 K | – | – | 14.73 | 0.655
308.15 K | 29 | 18.8 | – | –

CN(C)c1ccccc1 + CCCC[n+]1ccn(C)c1.O=S(=O)([O-])C(F)(F)F
100 kPa
Details | viscosity [mPa·s]
288.15 K, x1 = 0.2998 | 54
288.15 K, x1 = 0.397 | 39.3
288.15 K, x1 = 0.6997 | 10.05
288.15 K, x1 = 1 | 1.536
293.15 K, x1 = 1 | 1.415
298.15 K, x1 = 0.397 | 25.9
298.15 K, x1 = 0.8945 | 2.63
308.15 K, x1 = 0.2 | 30.7
313.15 K, x1 = 0.2 | 25.2
313.15 K, x1 = 0.6997 | 5.03
318.15 K, x1 = 0.1 | 27.1
318.15 K, x1 = 0.6997 | 4.54
318.15 K, x1 = 0.8945 | 1.828
323.15 K, x1 = 1 | 0.92
328.15 K, x1 = 0.1 | 19.6
328.15 K, x1 = 0.8945 | 1.569
333.15 K, x1 = 0.1 | 16.91
333.15 K, x1 = 0.5045 | 6.71
333.15 K, x1 = 0.8945 | 1.463

N[C@@H](Cc1ccccc1)C(=O)O + CCCC[n+]1ccn(C)c1.[Br-] + O
viscosity [mPa·s], 101.3 kPa
Details | x1 = 0.0003605, x2 = 0 | x1 = 0.0007251, x2 = 0 | x1 = 0.001079, x2 = 0 | x1 = 0.001441, x2 = 0 | x1 = 0.001797, x2 = 0 | x1 = 0.00216, x2 = 0 | x1 = 0.002516, x2 = 0
293.15 K | 1.01 | 1.02 | 1.03 | 1.05 | 1.06 | 1.08 | 1.09
298.15 K | 0.8 | 0.81 | 0.83 | 0.84 | 0.85 | 0.87 | 0.88
303.15 K | 0.71 | 0.72 | 0.74 | 0.75 | 0.76 | 0.78 | 0.79
308.15 K | 0.63 | 0.64 | 0.66 | 0.67 | 0.68 | 0.7 | 0.71
313.15 K | 0.57 | 0.58 | 0.59 | 0.6 | 0.62 | 0.63 | 0.64

O=C1O[C@H]([C@@H](O)CO)C(O)=C1O + CCCC[n+]1ccn(C)c1.[Br-] + O
viscosity [mPa·s], 100 kPa
Details | 293.15 K | 298.15 K | 303.15 K | 308.15 K | 313.15 K | 318.15 K
x1 = 0.0003765, x2 = 0 | 1.008 | 0.898 | 0.804 | 0.725 | 0.66 | 0.607
x1 = 0.0007293, x2 = 0 | 1.013 | 0.903 | 0.809 | 0.73 | 0.665 | 0.612
x1 = 0.001087, x2 = 0 | 1.017 | 0.908 | 0.814 | 0.735 | 0.67 | 0.617
x1 = 0.001456, x2 = 0 | 1.023 | 0.914 | 0.819 | 0.74 | 0.674 | 0.621
x1 = 0.001827, x2 = 0 | 1.028 | 0.919 | 0.825 | 0.745 | 0.679 | 0.626
x1 = 0.002192, x2 = 0 | 1.035 | 0.924 | 0.831 | 0.75 | 0.684 | 0.632

COC(=O)OC + CCCCn1cc[n+](C)c1C.O=S(=O)([N-]S(=O)(=O)C(F)(F)F)C(F)(F)F
101.3 kPa, x2 = 0
Details | viscosity [mPa·s]
288.15 K | 0.668
293.15 K | 0.628
298.15 K | 0.588
303.15 K | 0.553
308.15 K | 0.524
313.15 K | 0.498

CCC(=O)[O-].CC[NH+]1CCNCC1 + CCCO
101 kPa
Details | viscosity [mPa·s]
298.15 K, x2 = 0.4017 | 47.45
308.15 K, x2 = 0.3041 | 39.45

CCCCCCCCn1cc[n+](C)c1.[Cl-] + CCCO
101 kPa
Details | viscosity [mPa·s]
298.15 K, x2 = 0 | 21000
298.15 K, x2 = 0.7248 | 19.25
298.15 K, x2 = 0.9024 | 4.6
313.15 K, x2 = 0.407 | 160
328.15 K, x2 = 0 | 1091
328.15 K, x2 = 0.1071 | 560
328.15 K, x2 = 0.2407 | 231
328.15 K, x2 = 0.3036 | 144
328.15 K, x2 = 0.6209 | 17.73
328.15 K, x2 = 0.7248 | 8.25
328.15 K, x2 = 0.94 | 1.679
328.15 K, x2 = 0.9729 | 1.372

CC[n+]1ccn(C)c1.N#C[S-] + CCCO
viscosity [mPa·s], 101 kPa
Details | 283.15 K | 293.15 K | 303.15 K | 313.15 K | 323.15 K
x1 = 0.0494 | 3.32 | 2.6 | 2.07 | 1.68 | 1.38
x1 = 0.0994 | 4.04 | 3.12 | 2.47 | 1.99 | 1.63
x1 = 0.1997 | 5.49 | 4.24 | 3.4 | 2.63 | 2.17
x1 = 0.3015 | 7.06 | 5.36 | 4.21 | 3.42 | 2.87
x1 = 0.3996 | 9.09 | 6.89 | 5.39 | 4.34 | 3.58
x1 = 0.4986 | 12.1 | 9.09 | 7.06 | 5.65 | 4.64
x1 = 0.5998 | 15.89 | 11.72 | 8.97 | 7.08 | 5.66
x1 = 0.7008 | 20.24 | 14.76 | 10.88 | 8.47 | 6.81
x1 = 0.8005 | 25.11 | 17.87 | 13.31 | 10.27 | 8.17
x1 = 0.9002 | 30.71 | 21.99 | 16.11 | 12.25 | 9.62
x1 = 0.946 | 34.98 | 24.14 | 17.68 | 13.52 | 10.63
x1 = 1 | 38.41 | 26.31 | 19.03 | 14.3 | 11.1
